One test deals with J774.A1. Kind of test: Cytotoxicity against mouse J774A1 cells by rapid colorimetric assay. In kind it is cell-based.
For the next test, the system named is HEK293. The experiment in a line: Cytotoxicity against HEK293 cells by rapid colorimetric assay. The conditions noted are these: Homo sapiens. In kind it is cell-based.
The next test concerns WEHI-164. Kind of test: Cytotoxicity against mouse WEHI164 cells by rapid colorimetric assay. In kind it is functional, cell-based.

Each structure is given as a SMILES string. Converted amounts (≈) assume the structure as drawn.

`C1=C\Cc2ccc[n+](c2)CCCCCCCC/C=C\Cc2ccc[n+](c2)CCCCCCCC/C=C\Cc2ccc[n+](c2)CCCCCCCC/1`: the half-inhibitory concentration (IC50) with J774.A1, in the test with HEK293 and in the test with WEHI-164 was greater than 20 µg/mL each time.
`C1=C\Cc2ccc[n+](c2)CCCCCCCC/C=C\Cc2ccc[n+](c2)CCCCCCCC/1`: the IC50 in the test on J774.A1, in the test on HEK293 and in the test on WEHI-164 was greater than 20 µg/mL in each case.
On to `Sc1ncnc2nc[nH]c12` [MERCAPTOPURINE ANHYDROUS], for which the IC50 in the test with J774.A1 is 0.0051 µg/mL (≈ 0.0335 µM); in the test with HEK293 it was 0.00071 µg/mL (≈ 0.00467 µM); in the test on WEHI-164, 0.0025 µg/mL (≈ 0.0164 µM).

The values are drawn from ChEMBL document CHEMBL1151990, “3-Alkylpyridinium alkaloids from the Pacific sponge Haliclona sp” (J Nat Prod, 2009).
